Earlier results in US6348220B1, “Phenethylisothiocyanate nutraceutical compositions and methods” (Rutgers, the State University of New Jersey, priority 1999, dated 2002).

Tested on: oxidation of nitrosamines from tobacco
Conditions: human smokers, PEITC from fresh watercress, urinary metabolites (Hecht et al., 1995)

Structure (SMILES): S=C=NCCc1ccccc1 [PEITC, phenethyl isothiocyanate]
- effect on oxidation of nitrosamines from tobacco: specifically inhibit the oxidation of nitrosamines from tobacco
